From patent US20230407249A1, “Media and methods for establishing and maintaining early embryo-like cells” (BGI SHENZHEN GROUP HOLDINGS CO., LIMITED, priority 2020, published 2023)

What was measured:
primed human PSCs = experiment: Conversion of primed human PSCs to ICLCs (ICM marker expression, colony morphology); assay type: cell-based
Procedure: One day before initiation of conversion, primed human PSCs were washed with PBS once and dissociated into single cells and plated at a density of 1,000 to 1,500 cells/cm^2 on feeder in mTeSR1 or E8 medium supplemented with 10 μM Y27632. Twenty-four hours later, culture medium was switched to 4CL medium 1. The culture medium was refreshed with the same medium every 24 hours. Colonies became round and domed-shape in 24 to 48 hours. Cells were passaged every 3 to 4 days. For passaging, cells were dissociated into single cells using TrypLE: 0.5 mM EDTA (1:1) and plated at a density of 1,000 to 1,500 cells/cm^2 on feeder (feeders were seeded on Geltrex™/Matrigel™ pre-treated plate) (FIG. 1). The ICLCs induction and maintenance can be conducted under hypoxic condition (37° C., 5% CO2, 5% O2), or normoxic condition (37° C., 5% CO2, 21% O2) (FIG. 34), preferably hypoxia condition.
Using the same procedures of example 1, except plating cells on 1% (v/v) Geltrex™ in DMEM-F12 (cat #) coated plates instead of on feeder cells.
Primed human PSCs were cultured following the same procedures of example 1. One day before initiation of the conversion, primed human PSCs were dissociated into single cells and plated 60,000 cells/well in Aggrewell™800 plates using mTeSR1 or E8 medium supplemented with 10 μM Y27632. […]

[1] = system: primed human PSCs or ICLCs; experiment: Conversion of primed human PSCs or ICLCs to 8CLCs (8C marker expression); assay type: cell-based; settings: CHIR99021 included in e4CL, or IWR1 withdrawn from e4CL
Procedure: Primed human PSCs were cultured following the same procedures of example 1. One day before initiation of the conversion, primed human PSCs were dissociated into single cells and plated at 2,000 to 3,000 cells/cm^2 on feeder using mTeSR1 or E8 medium supplemented with 10 μM Y27632. Twenty-four hours later, culture medium was changed into e4CL medium, cells were cultured in incubator at 37° C., 5% CO2, hypoxic or normoxic condition. Medium was refreshed daily. Cells were passaged every 3 to 4 days. For passaging, cells were dissociated into single cells using TrypLE: 0.5 mM EDTA (1:1), plated at 2,000 to 3,000 cells/cm^2 on feeder coated plates. Generally, cells were converted to 8CLCs in approximately one week. One day before initiation of the conversion, ICLCs were dissociated into single cells and plated at 2,000 to 3,000 cells/cm^2 on feeders using 4CL medium. Twenty-four hours later, culture medium is changed into e4CL medium. Medium was refreshed daily. Cells were converted to 8CLCs in 3 to 5 days without passaging. ICLCs were cultured following the same procedures of example 1. One day before initiation of the conversion, ICLCs were dissociated into single cells and resuspended in 4CL medium at a density of 300,000 cells/ml. The cell suspension was added into flasks for suspension culture (Greiner Bio-One, 658190). […]

Compound	expression levels of ICM specific genes such as DNMT3L, STELLA, DPPA5, KLF17 (primed human PSCs; final concentration of 40 to 70 μg/ml)	8CLC formation [1]	ICLC formation (primed human PSCs; CHIR99021 included in 4CL, or IWR1 withdrawn from 4CL)
O=C1O[C@H]([C@@H](O)CO)C(O)=C1O [L-ascorbic acid]	potently increases	–	–
Cc1c[nH]c(-c2cnc(NCCNc3ccc(C#N)cn3)nc2-c2ccc(Cl)cc2Cl)n1 [CHIR99021]	–	inhibits formation of 8CLC	inhibits formation of ICLC
